Converted amounts (≈) assume the structure as drawn.
Experiments:
Type in all cases: cell-based
[1] = test system: E. coli NIHJ; test: bioautography (TLC); conditions: TLC Merck silica gel F254, E. coli NIHJ
Procedure: 2.5 mg of the compound obtained in Example 4 (C) was suspended in 0.5 ml of methanol, and 35 μl of concentrated aqueous ammonia was added thereto. The mixture was left to stand at room temperature for 1 hour. […] The fraction of this peak was separated and freeze-dried to obtain 1 mg of the above identified compound.

[2] = test system: bacteria; test: antibacterial spectrum of the compound of Example 6; conditions: compared with the compound of Example 3 (E)
[3] = test system: S. aureus JS-1; test: MIC by agar plate dilution method; conditions: Staphylococcus aureus, JS1; S. aureus JS-1; 10^6 CFU/ml; read-out: Minimum Inhibitory Concentration
How it was run: (§1)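 Plate dilution in agar (Sensitivity Disk Agar medium), 10^6 CFU/ml inoculum, MIC in μg/ml.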

[4] = test system: C. freundii No. 7; test: MIC by agar plate dilution method; conditions: Citrobacter freundii; C. freundii No. 7; 10^6 CFU/ml; read-out: Minimum Inhibitory Concentration
How it was run: as §1

[5] = test system: P. vulgaris No. 33; test: MIC by agar plate dilution method; conditions: Proteus vulgaris; P. vulgaris No. 33; 10^6 CFU/ml; read-out: Minimum Inhibitory Concentration
How it was run: as §1

[6] = test system: A. calcoaceticus No. 14; test: MIC by agar plate dilution method; conditions: Acinetobacter calcoaceticus, NO.14, A. calcoaceticus No. 14; 10^6 CFU/ml; read-out: Minimum Inhibitory Concentration
How it was run: as §1

[7] = test system: E. coli ML1410/Rte16; test: MIC by agar plate dilution method; conditions: Escherichia coli, ML1410/RTE16, read-out: Minimum Inhibitory Concentration, E. coli ML1410/Rte16; 10^6 CFU/ml
How it was run: (§2)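 Compounds are diluted into Sensitivity Disk Agar plates, which are then inoculated at 10^6 CFU/ml. The lowest concentration inhibiting growth is taken as the MIC (μg/ml).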

[8] = test system: E. coli CSH; test: MIC by agar plate dilution method; conditions: Escherichia coli, 10^6 CFU/ml, read-out: Minimum Inhibitory Concentration
How it was run: as §1

[9] = test system: P. mirabilis JY10; test: MIC by agar plate dilution method; conditions: Proteus mirabilis; P. mirabilis JY10; 10^6 CFU/ml; read-out: Minimum Inhibitory Concentration
How it was run: as §1

[10] = test system: P. aeruginosa AK109; test: MIC by agar plate dilution method; conditions: Pseudomonas aeruginosa, AK109, P. aeruginosa AK109; 10^6 CFU/ml; read-out: Minimum Inhibitory Concentration
How it was run: as §1

[11] = test system: E. cloaceae Nek 39; test: MIC by agar plate dilution method; conditions: E. cloaceae Nek 39; 10^6 CFU/ml; read-out: Minimum Inhibitory Concentration
How it was run: as §1

[12] = test system: E. coli NIHJJC-2; test: MIC by agar plate dilution method; conditions: Escherichia coli, NIHJJC2, E. coli NIHJJC-2; 10^6 CFU/ml; read-out: Minimum Inhibitory Concentration
How it was run: as §1

[13] = test system: K. pneumoniae No. 42; test: MIC by agar plate dilution method; conditions: Klebsiella pneumoniae, NO.42, read-out: Minimum Inhibitory Concentration
How it was run: as §1

[14] = test system: E. coli C/Rms149; test: MIC by agar plate dilution method; conditions: Escherichia coli, read-out: Minimum Inhibitory Concentration, E. coli C/Rms149; 10^6 CFU/ml
How it was run: as §2

[15] = test system: E. coli W3630/Rms213; test: MIC by agar plate dilution method; conditions: Escherichia coli, W3630/RMS213, read-out: Minimum Inhibitory Concentration, E. coli W3630/Rms213; 10^6 CFU/ml
How it was run: as §2

[16] = test system: E. coli W3630/Rms212; test: MIC by agar plate dilution method; conditions: Escherichia coli, W3630/RMS212, read-out: Minimum Inhibitory Concentration, E. coli W3630/Rms212; 10^6 CFU/ml
How it was run: as §2

[17] = test system: E. coli CSH2; test: MIC by agar plate dilution method; conditions: Escherichia coli, 10^6 CFU/ml, read-out: Minimum Inhibitory Concentration
How it was run: as §1

[18] = test system: P. aeruginosa AKR17; test: MIC by agar plate dilution method; conditions: Pseudomonas aeruginosa, AKR17, P. aeruginosa AKR17; 10^6 CFU/ml; read-out: Minimum Inhibitory Concentration
How it was run: as §1

[19] = test system: S. marcescens No. 16-2; test: MIC by agar plate dilution method; conditions: Serratia marcescens, NO.162; S. marcescens No. 16-2; 10^6 CFU/ml; read-out: Minimum Inhibitory Concentration
How it was run: as §1

[20] = test system: S. aureus NIHJJC-1; test: MIC by agar plate dilution method; conditions: Staphylococcus aureus, NIHJJC1, read-out: Minimum Inhibitory Concentration
How it was run: as §1

[21] = test system: P. vulgaris OB1043; test: MIC by agar plate dilution method; conditions: Proteus vulgaris, OB1043, P. vulgaris OB1043; 10^6 CFU/ml; read-out: Minimum Inhibitory Concentration
How it was run: as §1

## CON=C(C(=O)NC1C(=O)N2C(C(=O)[O-])=C(C[N+]3(C)CCc4cc(O)c(O)cc4C3)CSC12)c1csc(N)n1 (stereo not drawn) [Ex. 3-E, 7-[(Z)-2-(2-aminothiazol-4-yl)-2-methoxyiminoacetamido]-3-(6,7-dihydroxy-2-methyl-1,2,3,4-tetrahydro-2-isoquinolinium)methyl-3-cephem-4-carboxylate]
[1]
  antibacterial spot in bioautography: shows a spot exhibiting antibacterial activities at Rf=0.1
[2]
  antibacterial spectrum: exhibited the same antibacterial spectrum as the compound of Example 3 (E)
[3]
  MIC: 6.25 µg/mL (≈ 10.9 µM)
[4]
  MIC: 3.12 µg/mL (≈ 5.43 µM)
[5]
  MIC: 0.2 µg/mL (≈ 0.348 µM)
[6]
  MIC: 0.39 µg/mL (≈ 0.679 µM)
[7]
  MIC: 0.1 µg/mL (≈ 0.174 µM)
[8]
  MIC: 0.78 µg/mL (≈ 1.36 µM)
[9]
  MIC: 0.78 µg/mL (≈ 1.36 µM)
[10]
  MIC: 0.78 µg/mL (≈ 1.36 µM)
[11]
  MIC: 0.1 µg/mL (≈ 0.174 µM)
[12]
  MIC: 0.1 µg/mL (≈ 0.174 µM)
[13]
  MIC: 0.39 µg/mL (≈ 0.679 µM)
[14]
  MIC: 0.1 µg/mL (≈ 0.174 µM)
[15]
  MIC: 1.56 µg/mL (≈ 2.71 µM)
[16]
  MIC: 0.05 µg/mL (≈ 0.087 µM)
[17]
  MIC: 0.1 µg/mL (≈ 0.174 µM)
[18]
  MIC: 3.12 µg/mL (≈ 5.43 µM)
[19]
  MIC: 12.5 µg/mL (≈ 21.8 µM)
[20]
  MIC: 1.56 µg/mL (≈ 2.71 µM)
[21]
  MIC: 0.78 µg/mL (≈ 1.36 µM)
